The text below walks through data of patent US10358446B2, “Bruton's tyrosine kinase inhibitors” (Zibo Biopolar Changsheng Pharmaceutical Co. Ltd., priority 2015, dated 2019).

pIC50: −log10 of the molar value. A value given as a limit tells only on which side of the number the result lay.

Chain of BTK (Q06187 whole entry, species assumed): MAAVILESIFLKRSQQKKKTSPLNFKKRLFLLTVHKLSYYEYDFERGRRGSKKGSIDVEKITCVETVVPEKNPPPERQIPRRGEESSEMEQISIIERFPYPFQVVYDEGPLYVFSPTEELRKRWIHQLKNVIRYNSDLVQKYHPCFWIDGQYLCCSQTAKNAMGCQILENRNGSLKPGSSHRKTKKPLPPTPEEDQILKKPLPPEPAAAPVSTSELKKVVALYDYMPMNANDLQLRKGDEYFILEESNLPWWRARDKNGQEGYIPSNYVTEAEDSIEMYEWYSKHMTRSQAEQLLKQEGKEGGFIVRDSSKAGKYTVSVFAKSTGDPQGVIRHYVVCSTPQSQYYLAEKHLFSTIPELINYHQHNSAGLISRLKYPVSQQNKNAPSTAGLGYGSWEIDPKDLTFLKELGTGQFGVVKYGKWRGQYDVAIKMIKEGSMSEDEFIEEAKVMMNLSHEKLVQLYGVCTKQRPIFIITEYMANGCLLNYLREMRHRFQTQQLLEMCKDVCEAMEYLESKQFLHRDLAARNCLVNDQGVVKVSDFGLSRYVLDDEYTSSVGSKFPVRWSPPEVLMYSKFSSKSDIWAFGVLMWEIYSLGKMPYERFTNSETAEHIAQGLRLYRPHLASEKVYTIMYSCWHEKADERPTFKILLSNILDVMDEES

This assay deals with BTK (Homo sapiens (Human), UniProt Q06187). The assay is described as follows: Btk kinase assay (HTRF). Type of assay: biochemical. Particulars: [ATP]=80 μM, BTK=3.4 nM; read-out: BTK Inhibition. Put shortly:
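HTRF kinase read-out (665/615 nm ratio, excitation 330 nm) after EDTA quench and 1 h detection incubation. Reaction: 3.4 nM BTK, ATP 80 μM, peptide substrate 1 μM, compound, HEPES pH 7.0 buffer, 1 h; IC50 derived using uninhibited and enzyme-free controls.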
Take `C=CC(=O)Nc1cccc(-n2c(=O)n(-c3ccc(NC(=O)c4cccc(Cl)c4)cc3)c3cnccc32)c1` [Example 259, N-(4-(1-(3-acrylamidophenyl)-2-oxo-1H-imidazo[4,5-c]pyridin-3(2H)-yl)phenyl)-3-chlorobenzamide]: the pIC50 is 6.00 to 7.00. In the case of `C=CC(=O)Nc1cccc(-n2c(=O)n(-c3cccc(Oc4cccc(F)c4)c3)c3cnccc32)c1` [Example 75, N-(3-(3-(3-(3-fluorophenoxy)phenyl)-2-oxo-2,3-dihydro-1H-imidazo[4,5-c]pyridin-1-yl)phenyl)acrylamide] it was 7.00 to 8.00. In the case of `C=CC(=O)N1CC[C@@H](n2c(=O)n(-c3cccc(Oc4cccc(F)c4C)c3)c3cnccc32)C1` [Example 55, (R)-1-(1-acryloylpyrrolidin-3-yl)-3-(3-(3-fluoro-2-methylphenoxy)phenyl)-1H-imidazo[4,5-c]pyridin-2(3H)-one] it was 7.00 to 8.00; in that of `C=CC(=O)Nc1cccc(-n2c(=O)n(-c3ccc(Oc4ccc(Cl)c(F)c4)cc3)c3cnccc32)c1` [Example 160, N-(3-(3-(4-(4-chloro-3-fluorophenoxy)phenyl)-2-oxo-2,3-dihydro-1H-imidazo[4,5-c]pyridin-1-yl)phenyl)acrylamide], 6.00 to 7.00. On to `C=CC(=O)N1CCC[C@@H](n2c(=O)n(-c3ccc(Oc4cccc(C)c4)cc3)c3cnccc32)C1` [Example 13, (R)-1-(1-acryloylpiperidin-3-yl)-3-(4-(m-tolyloxy)phenyl)-1H-imidazo[4,5-c]pyridin-2(3H)-one], for which the pIC50 was 7.00 to 8.00. For `C=CC(=O)Nc1cccc(-n2c(=O)n(-c3ccc(-c4ccccc4)cc3)c3cnccc32)c1` [Example 271, N-(3-(3-([1,1′-biphenyl]-4-yl)-2-oxo-2,3-dihydro-1H-imidazo[4,5-c]pyridin-1-yl)phenyl)acrylamide], the pIC50 was 7.00 to 8.00.

As for `C=CC(=O)Nc1cccc(-n2c(=O)n(-c3ccc(Oc4ccc(OC)c(F)c4)cc3)c3cnccc32)c1` [Example 161, N-(3-(3-(4-(3-fluoro-4-methoxyphenoxy)phenyl)-2-oxo-2,3-dihydro-1H-imidazo[4,5-c]pyridin-1-yl)phenyl)acrylamide], the pIC50 is 6.00 to 7.00. Turning to `C=CS(=O)(=O)N1CC[C@@H](n2c(=O)n(-c3ccc(Oc4ccccc4)c(Cl)c3)c3cnccc32)C1` [Example 23, (R)-3-(3-chloro-4-phenoxyphenyl)-1-(1-(vinylsulfonyl)pyrrolidin-3-yl)-1H-imidazo[4,5-c]pyridin-2(3H)-one], the pIC50 was 7.00 to 8.00. In the case of `C=CC(=O)N1CC[C@@H](n2c(=O)n(-c3ccc(Oc4cccc(OC(C)C)c4)c(F)c3)c3cnccc32)C1` [Example 52, (R)-1-(1-acryloylpyrrolidin-3-yl)-3-(3-fluoro-4-(3-isopropoxyphenoxy)phenyl)-1H-imidazo[4,5-c]pyridin-2(3H)-one], the pIC50 was 6.00 to 7.00.

As for `C=CC(=O)Nc1cccc(-n2c(=O)n(-c3ccc(OCc4cc(F)cc(F)c4)cc3)c3cnccc32)c1` [Example 219, N-(3-(3-(4-((3,5-difluorobenzyl)oxy)phenyl)-2-oxo-2,3-dihydro-1H-imidazo[4,5-c]pyridin-1-yl)phenyl)acrylamide], the pIC50 was 6.00 to 7.00. In the case of `C=CC(=O)N1CCC[C@@H](n2c(=O)n(-c3ccc(Oc4cccc(OC)c4)cc3)c3cnccc32)C1` [Example 118, (R)-1-(1-acryloylpiperidin-3-yl)-3-(4-(3-methoxyphenoxy)phenyl)-1H-imidazo[4,5-c]pyridin-2(3H)-one] it was 7.00 to 8.00; in that of `C=CC(=O)N1CC[C@@H](n2c(=O)n(-c3ccc(OCc4ccccc4C(F)(F)F)c(Cl)c3)c3cnccc32)C1` [Example 203, (R)-1-(1-acryloylpyrrolidin-3-yl)-3-(3-chloro-4-((2-(trifluoromethyl)benzyl)oxy)phenyl)-1H-imidazo[4,5-c]pyridin-2(3H)-one], 6.00 to 7.00; in that of `C=CC(=O)N1CC[C@@H](n2c(=O)n(-c3ccc(OCc4ccccc4)c(Cl)c3)c3cnccc32)C1` [Example 197, (R)-1-(1-acryloylpyrrolidin-3-yl)-3-(4-(benzyloxy)-3-chlorophenyl)-1H-imidazo[4,5-c]pyridin-2(3H)-one], 6.00 to 7.00. As to `C=CC(=O)N1CCC(Cn2c(=O)n(-c3ccc(Oc4ccccc4)cc3)c3cnccc32)CC1` [Example 15, 1-((1-acryloylpiperidin-4-yl)methyl)-3-(4-phenoxyphenyl)-1H-imidazo[4,5-c]pyridin-2(3H)-one], the pIC50 was 6.00 to 7.00. In the case of `C=CC(=O)N1CC[C@@H](n2c(=O)n(-c3ccc(OCc4ccc(Cl)cc4Cl)c(Cl)c3)c3cnccc32)C1` [Example 208, (R)-1-(1-acryloylpyrrolidin-3-yl)-3-(3-chloro-4-((2,4-dichlorobenzyl)oxy)phenyl)-1H-imidazo[4,5-c]pyridin-2(3H)-one] it was 6.00 to 7.00; in that of `C=CC(=O)Nc1cccc(-n2c(=O)n(-c3ccc(Oc4cc(Cl)cc(OC)c4)cc3)c3cnccc32)c1` [Example 71, N-(3-(3-(4-(3-chloro-5-methoxyphenoxy)phenyl)-2-oxo-2,3-dihydro-1H-imidazo[4,5-c]pyridin-1-yl)phenyl)acrylamide], 6.00 to 7.00; in that of `O=C(/C=C/c1ccccc1)N1CC[C@@H](n2c(=O)n(-c3ccc(Oc4ccccc4)cc3)c3cnccc32)C1` [Example 29, (R,E)-1-(1-cinnamoylpyrrolidin-3-yl)-3-(4-phenoxyphenyl)-1H-imidazo[4,5-c]pyridin-2(3H)-one], at most 5.00. With `CC(C)(C)/C=C(/C#N)C(=O)N1CCCC1Cn1c(=O)n(-c2ccc(Oc3ccccc3)cc2)c2cnccc21` (stereo not shown) [Example 180, 4,4-Dimethyl-2-{2-[2-oxo-3-(4-phenoxy-phenyl)-2,3-dihydro-imidazo[4,5-c]pyridin-1-ylmethyl]-pyrrolidine-1-carbonyl}-pent-2-enenitrile], the pIC50 is 6.00 to 7.00. In the case of `C=CC(=O)Nc1cccc(-n2c(=O)n(-c3ccc(OCc4c(F)cccc4F)cc3)c3cnccc32)c1` [Example 226, N-(3-(3-(4-((2,6-difluorobenzyl)oxy)phenyl)-2-oxo-2,3-dihydro-1H-imidazo[4,5-c]pyridin-1-yl)phenyl)acrylamide] it was 6.00 to 7.00; in that of `C=CC(=O)N1CCC(n2c(=O)n(-c3ccc(Oc4ccccc4)cc3)c3cnccc32)CC1` [Example 30, 1-(1-acryloylpiperidin-4-yl)-3-(4-phenoxyphenyl)-1H-imidazo[4,5-c]pyridin-2(3H)-one], at most 5.00; in that of `C=CC(=O)Nc1cccc(-n2c(=O)n(-c3ccc(Oc4cccc(OC)c4)c(F)c3)c3cnccc32)c1` [Example 94, N-(3-(3-(3-fluoro-4-(3-methoxyphenoxy)phenyl)-2-oxo-2,3-dihydro-1H-imidazo[4,5-c]pyridin-1-yl)phenyl)acrylamide], 7.00 to 8.00. In the case of `C=CC(=O)N1CC[C@@H](n2c(=O)n(-c3ccc(OCc4ccc(F)c(F)c4)cc3)c3cnccc32)C1` [Example 214, (R)-1-(1-acryloylpyrrolidin-3-yl)-3-(4-((3,4-difluorobenzyl)oxy)phenyl)-1H-imidazo[4,5-c]pyridin-2(3H)-one] it was 5.00 to 6.00; in that of `C=CC(=O)Nc1cccc(-n2c(=O)n(-c3ccc(Oc4cccc(Cl)c4C)cc3)c3cnccc32)c1` [Example 150, N-(3-(3-(4-(3-chloro-2-methylphenoxy)phenyl)-2-oxo-2,3-dihydro-1H-imidazo[4,5-c]pyridin-1-yl)phenyl)acrylamide], 7.00 to 8.00; in that of `C=CC(=O)Nc1cccc(-n2c(=O)n(-c3ccc(OCc4ccc(C(F)(F)F)cc4)c(Cl)c3)c3cnccc32)c1` [Example 223, N-(3-(3-(3-chloro-4-((4-(trifluoromethyl)benzyl)oxy)phenyl)-2-oxo-2,3-dihydro-1H-imidazo[4,5-c]pyridin-1-yl)phenyl)acrylamide], 6.00 to 7.00.

As to `C=CC(=O)N1CC[C@@H](n2c(=O)n(-c3ccc(Oc4cccc(Cl)c4)cc3)c3cnccc32)C1` [Example 72, (R)-1-(1-acryloylpyrrolidin-3-yl)-3-(4-(3-chlorophenoxy)phenyl)-1H-imidazo[4,5-c]pyridin-2(3H)-one], the pIC50 was 7.00 to 8.00. Turning to `C=CC(=O)Nc1cccc(-n2c(=O)n(-c3ccc(OCc4cccc(F)c4)cc3)c3cnccc32)c1` [Example 222, N-(3-(3-(4-((3-fluorobenzyl)oxy)phenyl)-2-oxo-2,3-dihydro-1H-imidazo[4,5-c]pyridin-1-yl)phenyl)acrylamide], the pIC50 was 7.00 to 8.00. In the case of `O=C(/C=C/c1ccccc1)Nc1cccc(-n2c(=O)n(-c3ccc(Oc4ccccc4)cc3)c3cnccc32)c1` [Example 109, N-(3-(2-oxo-3-(4-phenoxyphenyl)-2,3-dihydro-1H-imidazo[4,5-c]pyridin-1-yl)phenyl)cinnamamide] it was at most 5.00; in that of `C=CC(=O)N1CC[C@@H](n2c(=O)n(-c3ccc(Oc4cccc(Cl)c4F)c(F)c3)c3cnccc32)C1` [Example 101, (R)-1-(1-acryloylpyrrolidin-3-yl)-3-(4-(3-chloro-2-fluorophenoxy)-3-fluorophenyl)-1,3-dihydro-2H-imidazo[4,5-c]pyridin-2-one], 7.00 to 8.00.

`C=CC(=O)Nc1cccc(-n2c(=O)n(-c3ccc(Oc4cccc(Cl)c4)c(C)c3)c3cnccc32)c1` [Example 154, N-(3-(3-(4-(3-chlorophenoxy)-3-methylphenyl)-2-oxo-2,3-dihydro-1H-imidazo[4,5-c]pyridin-1-yl)phenyl)acrylamide]: the pIC50 was 5.00 to 6.00.

Consider `C=CC(=O)Nc1cccc(-n2c(=O)n(-c3ccc(Oc4cccc(C)c4C)cc3)c3cnccc32)c1` [Example 147, N-(3-(3-(4-(2,3-dimethylphenoxy)phenyl)-2-oxo-2,3-dihydro-1H-imidazo[4,5-c]pyridin-1-yl)phenyl)acrylamide], for which the pIC50 is 7.00 to 8.00.

Regarding `C=CC(=O)Nc1cccc(-n2c(=O)n(-c3ccc(OCc4ccccc4)cc3)c3cnccc32)c1` [Example 239], the pIC50 was 6.00 to 7.00.
